What all share (test): urea-PAGE gel shift of acyl-ACP, densitometry
Holding throughout (assay type): biochemical
For orientation: Mobility shift assays separate free from complexed probe on a gel.

The target of experiment [1] is T1, VhAasS (Vibrio harveyi, UniProt Q00IB3).
T1 construct: gene aasS; His6-tagged, E. coli BL21[DE3], Ni-NTA purified; soluble enzyme
T1 sequence (Q00IB3 1-533): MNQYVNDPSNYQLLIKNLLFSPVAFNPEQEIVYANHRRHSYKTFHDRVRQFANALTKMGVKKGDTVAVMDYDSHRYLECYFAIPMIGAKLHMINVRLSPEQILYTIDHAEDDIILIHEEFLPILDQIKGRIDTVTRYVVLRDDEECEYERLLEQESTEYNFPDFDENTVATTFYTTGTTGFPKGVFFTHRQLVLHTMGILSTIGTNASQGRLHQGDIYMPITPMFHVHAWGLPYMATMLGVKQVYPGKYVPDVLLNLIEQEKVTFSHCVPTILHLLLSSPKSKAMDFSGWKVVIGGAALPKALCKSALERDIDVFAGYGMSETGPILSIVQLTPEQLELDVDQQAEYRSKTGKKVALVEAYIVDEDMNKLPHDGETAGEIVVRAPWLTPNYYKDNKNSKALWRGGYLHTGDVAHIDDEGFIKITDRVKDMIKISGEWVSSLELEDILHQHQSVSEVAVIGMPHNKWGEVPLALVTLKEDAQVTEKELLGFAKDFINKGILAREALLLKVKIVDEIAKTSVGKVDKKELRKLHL
The note with it: read-out: % inhibition at 1 mM.

Experiment [2] deals with T2, AasC (Chlamydia trachomatis, UniProt O84781).
T2 construct: gene aas; His6-tagged (pET16b or pET29a, synthetic gene), E. coli BL21[DE3], Ni-NTA purified
T2 sequence (O84781 1-537): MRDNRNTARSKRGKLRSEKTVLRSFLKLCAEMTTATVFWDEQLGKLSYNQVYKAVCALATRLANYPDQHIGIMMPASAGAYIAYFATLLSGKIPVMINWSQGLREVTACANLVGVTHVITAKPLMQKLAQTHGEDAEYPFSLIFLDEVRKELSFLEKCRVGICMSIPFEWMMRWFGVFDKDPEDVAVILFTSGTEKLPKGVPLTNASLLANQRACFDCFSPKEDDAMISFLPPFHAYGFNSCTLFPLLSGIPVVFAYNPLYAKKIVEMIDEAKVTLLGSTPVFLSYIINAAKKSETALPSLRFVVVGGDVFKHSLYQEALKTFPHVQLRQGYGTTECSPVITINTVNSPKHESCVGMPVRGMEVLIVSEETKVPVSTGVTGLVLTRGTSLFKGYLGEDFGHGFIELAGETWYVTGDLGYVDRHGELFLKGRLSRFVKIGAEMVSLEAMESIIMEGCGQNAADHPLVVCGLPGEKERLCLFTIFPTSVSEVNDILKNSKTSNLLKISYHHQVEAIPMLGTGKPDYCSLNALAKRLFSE
The settings on record: read-out: % inhibition at 1 mM.

In experiment [3] the target is T1, VhAasS. The note with it: holo-EcACP 30 uM, decanoic acid 1 mM, ATP 10 mM, MgCl2 12.5 mM, TCEP 2.5 mM, enzyme 2 uM, pH 7.5, 37 C, 24 h.
Experiment [4] has as its target T2, AasC. The note with it: holo-EcACP 30 uM, decanoic acid 1 mM, ATP 10 mM, MgCl2 12.5 mM, TCEP 2.5 mM, enzyme 50 uM, pH 7.5, 37 C, 24 h.

The inhibition is the percentage by which the read-out fell short of the control. Regarding `CCCCCCCCCC(=O)NS(=O)(=O)OC[C@H]1O[C@@H](n2cnc3c(N)ncnc32)[C@H](O)[C@@H]1O` [C10-AMS], the inhibition at 1000 µM at VhAasS [1] and at AasC [2] was 100% throughout.

Consider `CCCCCCCCCC(=O)O` [decanoic acid], for which the “urea-PAGE gel shift of acyl-ACP, densitometry” value on VhAasS [3] and on AasC [4] was “All AasS enzymes tested were able to load C10 onto EcACP” each time.

Source of the values: publication PMC10522932, “A broad inhibitor of acyl-acyl carrier protein synthetases” (Biochemistry and Biophysics Reports, 2023).
